{"source": "patent US8623661B2", "about": "“Iron chelating agent, method for producing same, method for determining amount of iron ions and method for trapping iron ions” (National University Corporation Asahikawa Medical College, priority 2008, dated 2014)", "test_system": "iron citrate complex ammonium salt (FAC)", "assay": "Evaluation A: chelating ability with iron, absorbance after adding chelating agent to iron citrate complex ammonium salt (FAC) solution", "assay_type": "binding", "conditions": "for [B] absorbance after addition of iron chelating agent / [B]-[A]: 470 nm; for [B]-[A]: minus blank", "experimental": "Evaluation was carried out by the following evaluation method A as to whether the iron chelating agent according to Example 1 had chelating ability with iron.\n335 mg of the iron chelating agent (MW:209.2) according to Example 1 was added to a 50 mL conical tube, 15 mL of Dulbecco's phosphate buffered saline (pH 7.2;1×D-PBS) was added thereto, 70 mg of sodium hydroxide (MW:40.0) crystal was added thereto, followed by vigorously stirring (shaking) for 10 minutes, and centrifugation (1000 rpm, flashing) was carried out before the lid was opened. Then, 16.75 mL of 1×D-PBS (pH 7.2) was added thereto, and an iron chelating agent solution was prepared having a total amount of 31.75 mL.\nFurther, 1×D-PBS (pH 7.2) was added to FAC solution (20 mM) to prepare an iron citrate complex ammonium salt solution having a concentration of iron ions of 2 mM (“FAC solution (2 mM)”).\nIron citrate complex ammonium salt solution [FAC solution (20 mM), FAC solution (2 mM)]”, and 1×D-PBS (pH 7.2) were mixed at the ratios shown in Tables 1 to 2, the absorbance of the mixture (wavelength 470 nm) was measured by using a spectrophotometer (trade name “NanoDrop ND-1000 Full-spectrum UV/Vis Spectrophotometer”, manufactured by SCRUM Corporation, UV-Vis Module, Measure), and the absorbance of blank ([A] in Tables 1 to 2) was determined. Then, 158 μL of Fe-Ser•Na (50 mM) was added to the mixture, the absorbance (wavelength 470 nm) was measured as described above, and the absorbance after addition of iron chelating agent according to Examples ([B] in Tables 1 to 2) was determined.", "key": {"[1]": {"conditions": "FAC solution (2 mM) 0 μl + 1xD-PBS 160 μl + Fe-Ser•Na (50 mM) 158 μl"}, "[2]": {"conditions": "FAC solution (2 mM) 10 μl + 1xD-PBS 150 μl + Fe-Ser•Na (50 mM) 158 μl"}, "[3]": {"conditions": "FAC solution (2 mM) 20 μl + 1xD-PBS 140 μl + Fe-Ser•Na (50 mM) 158 μl"}, "[4]": {"conditions": "FAC solution (2 mM) 40 μl + 1xD-PBS 120 μl + Fe-Ser•Na (50 mM) 158 μl"}, "[5]": {"conditions": "FAC solution (2 mM) 80 μl + 1xD-PBS 80 μl + Fe-Ser•Na (50 mM) 158 μl"}, "[6]": {"conditions": "FAC solution (2 mM) 160 μl + 1xD-PBS 0 μl + Fe-Ser•Na (50 mM) 158 μl"}, "[7]": {"conditions": "FAC solution (20 mM) 0 μl + 1xD-PBS 160 μl + Fe-Ser•Na (50 mM) 158 μl"}, "[8]": {"conditions": "FAC solution (20 mM) 10 μl + 1xD-PBS 150 μl + Fe-Ser•Na (50 mM) 158 μl"}, "[9]": {"conditions": "FAC solution (20 mM) 20 μl + 1xD-PBS 140 μl + Fe-Ser•Na (50 mM) 158 μl"}, "[10]": {"conditions": "FAC solution (20 mM) 40 μl + 1xD-PBS 120 μl + Fe-Ser•Na (50 mM) 158 μl"}, "[11]": {"conditions": "FAC solution (20 mM) 80 μl + 1xD-PBS 80 μl + Fe-Ser•Na (50 mM) 158 μl"}, "[12]": {"conditions": "FAC solution (20 mM) 160 μl + 1xD-PBS 0 μl + Fe-Ser•Na (50 mM) 158 μl"}}}
{"compound": "O=C(O)C(CO)NCc1ccccc1O", "note": "(centres unmarked) [Example 1, o-[(1-carboxy-2-hydroxyethyl)-amino-methyl]-phenol]", "values": [{"measurement": "[B] absorbance after addition of iron chelating agent", "setting": "[1]", "value": 0.015}, {"measurement": "[B]-[A]", "setting": "[1]", "value": 0.012}, {"measurement": "[B] absorbance after addition of iron chelating agent", "setting": "[2]", "value": 0.027}, {"measurement": "[B]-[A]", "setting": "[2]", "value": 0.023}, {"measurement": "[B] absorbance after addition of iron chelating agent", "setting": "[3]", "value": 0.040}, {"measurement": "[B]-[A]", "setting": "[3]", "value": 0.035}, {"measurement": "[B] absorbance after addition of iron chelating agent", "setting": "[4]", "value": 0.055}, {"measurement": "[B]-[A]", "setting": "[4]", "value": 0.046}, {"measurement": "[B] absorbance after addition of iron chelating agent", "setting": "[5]", "value": 0.104}, {"measurement": "[B]-[A]", "setting": "[5]", "value": 0.096}, {"measurement": "[B] absorbance after addition of iron chelating agent", "setting": "[6]", "value": 1.181}, {"measurement": "[B]-[A]", "setting": "[6]", "value": 0.169}, {"measurement": "[B] absorbance after addition of iron chelating agent", "setting": "[7]", "value": 0.010}, {"measurement": "[B]-[A]", "setting": "[7]", "value": 0.010}, {"measurement": "[B] absorbance after addition of iron chelating agent", "setting": "[8]", "value": 0.109}, {"measurement": "[B]-[A]", "setting": "[8]", "value": 0.104}, {"measurement": "[B] absorbance after addition of iron chelating agent", "setting": "[9]", "value": 0.208}, {"measurement": "[B]-[A]", "setting": "[9]", "value": 0.199}, {"measurement": "[B] absorbance after addition of iron chelating agent", "setting": "[10]", "value": 0.405}, {"measurement": "[B]-[A]", "setting": "[10]", "value": 0.390}, {"measurement": "[B] absorbance after addition of iron chelating agent", "setting": "[11]", "value": 0.800}, {"measurement": "[B]-[A]", "setting": "[11]", "value": 0.771}, {"measurement": "[B] absorbance after addition of iron chelating agent", "setting": "[12]", "value": 1.368}, {"measurement": "[B]-[A]", "setting": "[12]", "value": 1.311}, {"measurement": "capture of iron ions from the iron citrate complex", "setting": "conclusion from Tables 1 to 2", "value": "iron ions can be captured"}, {"measurement": "chelating ability with iron", "setting": "conclusion from Tables 1 to 2", "value": "has chelating ability with iron"}]}
